“Also recorded” adds a separate entry of the source. Marks after values point to notes of the source that are not given here.
Key:
[1] = test system: mechanical allodynia induced by unilateral nerve ligation; test: CCI model: mechanical allodynia (electronic Von Frey); assay type: in vivo, rat; conditions: for Mechanical allodynia, pressure to elicit foot withdrawal, Post-op + Drug: ligated hind paw, ±SEM
Procedure: The effectiveness of harkoseride in reducing spontaneous chronic pain, mechanical allodynia, and thermal hyperalgesia was tested using the chronic constriction injury (CCI) model of peripheral neuropathy, one of the best characterised in vivo animal models used to study chronic pain due to peripheral nerve injury. In this model, loose ligatures are placed around the sciatic nerve, which produces axonal swelling and a partial deafferentation manifested as a significant but incomplete loss of axons in the distal portion of the peripheral nerve. One of the prominent behaviours seen following sciatic nerve ligation is the appearance of hind paw guarding, thought to be an indication of an ongoing spontaneous chronic pain. Support for this idea is derived from reports of increased spinal cord neural activity, and increased spontaneous neuronal discharge in spinothalamic tract neurons and in the ventrobasal thalamus in the absence of overt peripheral stimulation. In addition to the appearance of spontaneous pain behaviours, several abnormalities in stimulus evoked pain occur as a result of CCI, including thermal hyperalgesia and mechanical allodynia. The development of these abnormal stimulus-evoked pains has also been reported as occurring in areas outside the territory of the damaged nerve, areas innervated by uninjured nerves.
Behavioural tests for spontaneous pain, thermal hyperalgesia, and mechanical allodynia were conducted to evaluate different components of neuropathic pain. Baseline data for each test was collected prior to any experimental procedure; in addition, all animals were tested for the development of chronic pain behaviours 13-25 days after CCI surgery 1 day prior to the day of vehicle (0.04 ml sterile water/10 g body weight) or drug administration and after vehicle/drug administration. The sequence of the tests was (1) spontaneous pain-related behaviour (2) mechanical allodynia, (3) thermal hyperalgesia in order to minimise the influence of one test on the result of the next. The testing procedures and results are presented separately for each aspect of chronic pain. Either 0 (vehicle, 0.04 ml/10 g body weight), 5, 10, 20 or 40 mg/kg of SPM 927 (n=7-23/group) was administered i.p. 15 minutes before the first behavioural test.
Mechanical sensitivity and allodynia of the ligated rat hind paw was quantified by brisk foot withdrawal in response to normally innocuous mechanical stimuli as described previously. Responsiveness to mechanical stimuli was tested with a calibrated electronic Von Frey pressure algometer connected to an online computerised data collection system. A significant decrease in the post operative compared to baseline pressure (g/mm^2) necessary to elicit a brisk foot withdrawal in response to this mechanical stimulus is interpreted as mechanical allodynia.

[2] = test system: formalin-induced tonic inflammatory nociceptive behaviour; test: Formalin test, rat (weighted behavioural scoring); assay type: in vivo; conditions: for Weighted pain score: score 0-3, ±SEM; for effect on formalin-induced nociceptive behaviour (in words): i.p. just prior to formalin, 5-40 mg/kg, late phase
Procedure: The formalin test is a chemically-induced tonic pain model in which biphasic changes of nociceptive behaviour are assessed and spinal/supraspinal plasticity of nociception is considered as a molecular basis for neuropathic pain particularly during the second (=late) phase of the test, during which most clinically used drugs against neuropathic pain are active.
The compound was tested for anti-nociceptive properties by use of the weighted behavioural scoring method: Freely moving animals underwent observational assessment of the position of the left hind paw according to a rating score scaled 0-3 before and 10, 20, 30 and 40 min after injection of 0.05 ml of sterile 2.5% formalin under the skin on the dorsal surface of the paw.

[3] = test system: acute spinal thermal nociception; test: Tail flick test, rat; assay type: in vivo; conditions: for Anti-nociceptive effect: ±SEM
Text: Harkoseride was additionally tested for potential activity in acute spinal thermal nociception using the tail flick test. In this model of acute thermal spinal/reflex hyperalgesia radiant heat is applied to the animal's tail approximately 2 cm from the tip and time latency for withdrawal reaction is automatically assessed by an algometer, a defined maximal stimulus time prevents tissue damage. This test is widely used as an assay for the anti-nociceptive efficacy of pharmacological agents and is highly predictive of acute analgesic efficacy in humans.
Results for 20 and 40 mg/kg harkoseride i.p are shown in table 5 [percent anti-nociception, calculated as [{(post-drug latency)−(pre-drug-latency)}/{(max. latency)−(pre-drug latency)}×100]±SEM, n=12/group]. A baseline or pre-drug tail-flick latency was determined by averaging 5 consecutive measurements taken 2 minutes apart. Vehicle (sterile water 0.04 ml/10 g body weight) or harkoseride were then administered and tail flick latencies recorded at 10-minute intervals for the next 60 minutes.

[4] = test system: formalin-induced nociception (paw licking); test: Subchronic inflammatory nociception in mice (formalin test); assay type: in vivo; conditions: for nociceptive threshold, early phase: 0-5 min after formalin (acute pain); for nociceptive threshold, late phase: 20-30 min after formalin (subchronic inflammatory pain); for effect on formalin-induced nociceptive response (in words): 10, 20, 40 mg/kg i.p.
Procedure: Subchronic inflammatory nocicpetion in mice was induced by the subplantar injection of formalin (0.02 ml of a 5% solution). Nociceptive behaviour (paw licking) was measured and quantified between 0 and 5 min (acute pain) and between 20 and 30 min (subchronic inflammatory pain) after formalin.
Drugs and experimental design: SPM 927 and GBP were suspended in 1% methylcellulose and administered i.p. at doses of 10 mg/kg, 20 mg/kg and 40 mg/kg. Pre-treatment time was 30 min before pain measurement. One group of animals served as controls and consequently received an injection of solvent (10 ml/kg) and another group of animals received a reference compound (Carrageenan test: 10 mg/kg indomethacin; Formalin test: 10 mg/kg morphine). Each compound was tested in a separate experiment and each experiment included a control and a reference group. 10 rats per group were used in the Carrageenan test and 6 mice per group in the formalin test.

In the case of `COC[C@@H](NC(C)=O)C(=O)NCc1ccccc1` [SPM 927, (R)-2-Acetamido-N-benzyl-3-methoxypropionamide], the “Mechanical allodynia, pressure to elicit foot withdrawal, Post-op + Drug” value (from here on “Mechanical allodynia, pressure”) ([1]; 5 mg/kg i.p.) is reported as 21.8 ± 2.34 g/mm^2, the “Mechanical allodynia, pressure” value ([1]; 10 mg/kg i.p.) is reported as 29.2 ± 2.85 g/mm^2 and the “Mechanical allodynia, pressure” value ([1]; 20 mg/kg i.p.) is reported as 39.6 ± 3.62 g/mm^2. For the same molecule, the “Mechanical allodynia, pressure” value ([1]; 40 mg/kg i.p.) was 43.0 ± 5.48 g/mm^2, the “effect on intensity of mechanical allodynia (in words)” value ([1]; 5-40 mg/kg i.p.) was “dose dependently reduced” and the Weighted pain score ([2]; 5 mg/kg i.p., 10 min after formalin) was 0.31 ± 0.11. For the same molecule, the Weighted pain score ([2]; 5 mg/kg i.p., 20 min after formalin) was 0.78 ± 0.23, the Weighted pain score ([2]; 5 mg/kg i.p., 30 min after formalin) was 1.47 ± 0.20 and the Weighted pain score ([2]; 5 mg/kg i.p., 40 min after formalin) was 1.46 ± 0.19. The Weighted pain score ([2]; 10 mg/kg i.p., 10 min after formalin) was 0.42 ± 0.17, the Weighted pain score ([2]; 10 mg/kg i.p., 20 min after formalin) was 0.33 ± 0.16 and the Weighted pain score ([2]; 10 mg/kg i.p., 30 min after formalin) was 1.02 ± 0.27. It also gave a Weighted pain score ([2]; 10 mg/kg i.p., 40 min after formalin) of 1.05 ± 0.19, a Weighted pain score ([2]; 20 mg/kg i.p., 10 min after formalin) of 0.48 ± 0.18 and a Weighted pain score ([2]; 20 mg/kg i.p., 20 min after formalin) of 0.57 ± 0.14. It also gave a Weighted pain score ([2]; 20 mg/kg i.p., 30 min after formalin) of 0.78 ± 0.18, a Weighted pain score ([2]; 20 mg/kg i.p., 40 min after formalin) of 1.02 ± 0.24 and a Weighted pain score ([2]; 40 mg/kg i.p., 10 min after formalin) of 0.12 ± 0.05. It also gave a Weighted pain score ([2]; 40 mg/kg i.p., 20 min after formalin) of 0.10 ± 0.04, a Weighted pain score ([2]; 40 mg/kg i.p., 30 min after formalin) of 0.09 ± 0.06 and a Weighted pain score ([2]; 40 mg/kg i.p., 40 min after formalin) of 0.12 ± 0.06. The “effect on formalin-induced nociceptive behaviour (in words)” value ([2]; listed as Harkoseride) was “dose dependant reduction”, the “effect on formalin-induced nociceptive behaviour (in words)” value ([2]; listed as harkoseride) was “Significant and dose dependent efficacy” and the Anti-nociceptive effect ([3]; 20 mg/kg i.p., 10 min after drug) was 5.0 ± 3.94%. The Anti-nociceptive effect ([3]; 20 mg/kg i.p., 20 min after drug) was 9.7 ± 7.51%, the Anti-nociceptive effect ([3]; 20 mg/kg i.p., 30 min after drug) was 9.7 ± 2.37% and the Anti-nociceptive effect ([3]; 20 mg/kg i.p., 40 min after drug) was 1.7 ± 7.42%. The Anti-nociceptive effect ([3]; 20 mg/kg i.p., 50 min after drug) was 5.4 ± 4.12%, the Anti-nociceptive effect ([3]; 20 mg/kg i.p., 60 min after drug) was 8.1 ± 5.20% and the Anti-nociceptive effect ([3]; 40 mg/kg i.p., 10 min after drug) was −1.6 ± 12.82%. The Anti-nociceptive effect ([3]; 40 mg/kg i.p., 20 min after drug) was −4.3 ± 14.04%, the Anti-nociceptive effect ([3]; 40 mg/kg i.p., 30 min after drug) was −2.3 ± 9.14% and the Anti-nociceptive effect ([3]; 40 mg/kg i.p., 40 min after drug) was −4.4 ± 11.44%. The Anti-nociceptive effect ([3]; 40 mg/kg i.p., 50 min after drug) was 0.3 ± 15.50%, the Anti-nociceptive effect ([3]; 40 mg/kg i.p., 60 min after drug) was −5.5 ± 14.11% and the “effect in the tail flick test (in words)” value ([3]; 20 and 40 mg/kg i.p., listed as harkoseride) was “negative results; also recorded: little or no effect; also recorded: no anti-nociceptive effect”. For the same molecule, the “nociceptive threshold, early phase” value ([4]; 10 mg/kg i.p.) was 67 ± 15 s, the “nociceptive threshold, late phase” value ([4]; 10 mg/kg i.p.) was 58 ± 16^a s and the “nociceptive threshold, early phase” value ([4]; 20 mg/kg i.p.) was 69 ± 8 s. For the same molecule, the “nociceptive threshold, late phase” value ([4]; 20 mg/kg i.p.) was 128 ± 16 s, the “nociceptive threshold, early phase” value ([4]; 40 mg/kg i.p.) was 8 ± 8^a s and the “nociceptive threshold, late phase” value ([4]; 40 mg/kg i.p.) was 17 ± 17^a s. For the same molecule, the “effect on formalin-induced nociceptive response (in words)” value [4] was “near complete reversal” and the “effect on formalin-induced nociceptive response (in words)” value ([4]; listed as SPM-927) was “dose dependently suppressed”.
